compound: COc1cc(Nc2ncc(F)c(Nc3ccc4c(n3)NC(=O)C(C)(C)O4)n2)cc(OC)c1OC [R406] + N=C(N)NC(=N)NCCc1ccccc1 [Phenformin] (partner 250 µM); assay: relative viability (nuclei count vs DMSO), 5 days (fraction); higher = more cells survive; conditions: first compound 0.08 µM
Summary of the method: (§1)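 Lung cancer cell lines were pin-tool dosed in 1536-well plates on the day after seeding, with either a lone drug or a fixed anchor-drug dose plus five library-drug doses (not always all listed) in √10 steps. Nuclei were counted on 4× images after 5 days. Relative viability is the ratio of treated-well to vehicle-well nuclei counts, with each value a median of duplicate plates.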

Cell Line	relative viability
NCI-H2228	0.318
NCI-H1355	0.474
NCI-H3122	0.396
NCI-H1437	0.301
NCI-H1755	0.602
NCI-H2023	0.374
HCC-15	0.467
PC-3 [JPC-3]	0.466
EKVX	0.23
LC-2-ad	0.592
NCI-H1975	0.386
SK-LU-1	0.597
ABC-1	0.227
NCI-H1944	0.207
NCI-H661	0.288
RERF-LC-KJ	0.43

same assay, conditions: first compound 0.253 µM

Cell Line	relative viability
NCI-H2228	0.383
NCI-H1792	0.377
NCI-H1355	0.472
NCI-H3122	0.39
NCI-H1437	0.31
NCI-H1755	0.651
NCI-H2023	0.444
HCC-15	0.606
PC-3 [JPC-3]	0.515
EKVX	0.254
LC-2-ad	0.561
NCI-H1975	0.463
SK-LU-1	0.608
ABC-1	0.225
NCI-H1944	0.227
NCI-H661	0.263
RERF-LC-KJ	0.415

same assay, conditions: first compound 0.8 µM

Cell Line	relative viability
NCI-H2228	0.312
NCI-H1792	0.246
NCI-H1355	0.472
NCI-H3122	0.396
NCI-H1437	0.251
NCI-H1755	0.621
NCI-H2023	0.464
HCC-15	0.595
PC-3 [JPC-3]	0.526
EKVX	0.245
LC-2-ad	0.579
NCI-H1975	0.421
SK-LU-1	0.628
ABC-1	0.236
NCI-H1944	0.218
NCI-H661	0.267
RERF-LC-KJ	0.41

same assay, conditions: first compound 2.53 µM

Cell Line	relative viability
NCI-H2228	0.106
NCI-H1792	0.0941
NCI-H1355	0.197
NCI-H3122	0.365
NCI-H1437	0.29
NCI-H1755	0.374
NCI-H2023	0.312
HCC-15	0.445
PC-3 [JPC-3]	0.413
EKVX	0.208
LC-2-ad	0.384
NCI-H1975	0.224
SK-LU-1	0.175
ABC-1	0.197
NCI-H1944	0.15
NCI-H661	0.273
RERF-LC-KJ	0.362

same assay, conditions: first compound 8 µM

Cell Line	relative viability
NCI-H2228	0.0936
NCI-H1792	0.13
NCI-H1355	0.28
NCI-H3122	0.369
NCI-H1437	0.201
NCI-H1755	0.429
NCI-H2023	0.163
HCC-15	0.234
PC-3 [JPC-3]	0.377
EKVX	0.178
LC-2-ad	0.25
NCI-H1975	0.127
SK-LU-1	0.0854
ABC-1	0.201
NCI-H1944	0.16
NCI-H661	0.226
RERF-LC-KJ	0.286

compound: O=C(/C=C/c1cccnc1)NCCCCC1CCN(C(=O)c2ccccc2)CC1 [Daporinad] + N=C(N)NC(=N)NCCc1ccccc1 [Phenformin] (partner 250 µM); assay: as above; conditions: first compound 0.0005 µM
Summary of the method: as §1

Cell Line	relative viability
NCI-H2228	0.352
NCI-H1355	0.454
NCI-H3122	0.36
NCI-H1437	0.349
NCI-H1755	0.648
NCI-H2023	0.409
HCC-15	0.421
PC-3 [JPC-3]	0.494
EKVX	0.212
LC-2-ad	0.568
NCI-H1975	0.435
SK-LU-1	0.444
ABC-1	0.257
NCI-H1944	0.206
NCI-H661	0.266
RERF-LC-KJ	0.376

same assay, conditions: first compound 0.001581 µM

Cell Line	relative viability
NCI-H2228	0.301
NCI-H1792	0.582
NCI-H1355	0.506
NCI-H3122	0.391
NCI-H1437	0.325
NCI-H1755	0.628
NCI-H2023	0.399
HCC-15	0.617
PC-3 [JPC-3]	0.481
EKVX	0.23
LC-2-ad	0.707
NCI-H1975	0.404
SK-LU-1	0.649
ABC-1	0.244
NCI-H1944	0.219
NCI-H661	0.284
RERF-LC-KJ	0.443

same assay, conditions: first compound 0.005 µM

Cell Line	relative viability
NCI-H2228	0.311
NCI-H1792	0.222
NCI-H1355	0.542
NCI-H3122	0.387
NCI-H1437	0.349
NCI-H1755	0.639
NCI-H2023	0.405
HCC-15	0.567
PC-3 [JPC-3]	0.478
EKVX	0.251
LC-2-ad	0.605
NCI-H1975	0.457
SK-LU-1	0.628
ABC-1	0.285
NCI-H1944	0.214
NCI-H661	0.308
RERF-LC-KJ	0.537

same assay, conditions: first compound 0.01581 µM

Cell Line	relative viability
NCI-H2228	0.417
NCI-H1792	0.68
NCI-H1355	0.508
NCI-H3122	0.333
NCI-H1437	0.362
NCI-H1755	0.667
NCI-H2023	0.447
HCC-15	0.586
PC-3 [JPC-3]	0.471
EKVX	0.227
LC-2-ad	0.677
NCI-H1975	0.401
SK-LU-1	0.662
ABC-1	0.285
NCI-H1944	0.241
NCI-H661	0.288
RERF-LC-KJ	0.477

compound: COc1cc(Nc2ncc(F)c(Nc3ccc4c(n3)NC(=O)C(C)(C)O4)n2)cc(OC)c1OC [R406] + CC(=O)c1c(C)c2cnc(Nc3ccc(N4CCNCC4)cn3)nc2n(C2CCCC2)c1=O [Palbociclib] (partner 0.5 µM); assay: as above; conditions: first compound 0.08 µM
Summary of the method: as §1

Cell Line	relative viability
NCI-H2228	0.728
NCI-H1792	0.603
NCI-H1355	0.404
NCI-H3122	0.18
NCI-H1437	0.318
NCI-H1755	0.419
NCI-H2023	0.359
HCC-15	0.818
PC-3 [JPC-3]	0.518
